The values that follow come from article PMC10350924, “Design, Synthesis, and Pharmacological Characterization of a Potent Soluble Epoxide Hydrolase Inhibitor for the Treatment of Acute Pancreatitis” (Journal of Medicinal Chemistry, 2023).

Test [1] addresses T1, Human recombinant sEH (Homo sapiens, UniProt P34913).
T1 construct: made in house; host or cells: Sf9 insect cells (recombinant baculovirus)
T1 sequence (P34913 1-555): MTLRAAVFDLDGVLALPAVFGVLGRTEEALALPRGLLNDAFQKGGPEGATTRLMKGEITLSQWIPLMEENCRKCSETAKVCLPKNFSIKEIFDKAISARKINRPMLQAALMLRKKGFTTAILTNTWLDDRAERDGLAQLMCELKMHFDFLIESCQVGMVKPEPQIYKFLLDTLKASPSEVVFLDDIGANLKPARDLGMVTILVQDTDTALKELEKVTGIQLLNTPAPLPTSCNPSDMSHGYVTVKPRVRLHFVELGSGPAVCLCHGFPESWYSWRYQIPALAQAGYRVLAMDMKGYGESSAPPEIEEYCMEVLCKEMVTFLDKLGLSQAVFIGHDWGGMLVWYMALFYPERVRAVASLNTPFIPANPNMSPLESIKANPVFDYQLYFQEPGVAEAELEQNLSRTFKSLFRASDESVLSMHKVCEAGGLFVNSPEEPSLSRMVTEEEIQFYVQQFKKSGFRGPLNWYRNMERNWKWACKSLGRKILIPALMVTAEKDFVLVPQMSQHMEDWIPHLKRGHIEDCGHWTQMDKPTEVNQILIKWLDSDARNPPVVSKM
Briefly: Cell-free sEH activity (PHOME fluorescence). It counts as biochemical. Particulars: human isolated sEH. The protocol:
Human recombinant sEH was expressed in Sf9 insect cells and purified by affinity chromatography. […] Elution with 4-fluorochalcone oxide in PBS pH 7.4 with 1 mM dithiothreitol and 1 mM EDTA yielded sEH, which was dialyzed and concentrated. Purified sEH (60 ng) in 25 mM Tris HCl pH 7 with 0.1 mg/mL bovine serum albumin (BSA) was preincubated with the vehicle (DMSO) or test compounds for 1 min at room temperature. The sEH substrate PHOME (20 μM, Cayman Chemicals) was added to start the enzymatic reaction, which was stopped after 60 min in the dark by the addition of ZnSO4 (200 mM).

Test [2] concerns the target T2, 5-LOX (Homo sapiens, UniProt P09917).
T2 sequence (P09917 1-674): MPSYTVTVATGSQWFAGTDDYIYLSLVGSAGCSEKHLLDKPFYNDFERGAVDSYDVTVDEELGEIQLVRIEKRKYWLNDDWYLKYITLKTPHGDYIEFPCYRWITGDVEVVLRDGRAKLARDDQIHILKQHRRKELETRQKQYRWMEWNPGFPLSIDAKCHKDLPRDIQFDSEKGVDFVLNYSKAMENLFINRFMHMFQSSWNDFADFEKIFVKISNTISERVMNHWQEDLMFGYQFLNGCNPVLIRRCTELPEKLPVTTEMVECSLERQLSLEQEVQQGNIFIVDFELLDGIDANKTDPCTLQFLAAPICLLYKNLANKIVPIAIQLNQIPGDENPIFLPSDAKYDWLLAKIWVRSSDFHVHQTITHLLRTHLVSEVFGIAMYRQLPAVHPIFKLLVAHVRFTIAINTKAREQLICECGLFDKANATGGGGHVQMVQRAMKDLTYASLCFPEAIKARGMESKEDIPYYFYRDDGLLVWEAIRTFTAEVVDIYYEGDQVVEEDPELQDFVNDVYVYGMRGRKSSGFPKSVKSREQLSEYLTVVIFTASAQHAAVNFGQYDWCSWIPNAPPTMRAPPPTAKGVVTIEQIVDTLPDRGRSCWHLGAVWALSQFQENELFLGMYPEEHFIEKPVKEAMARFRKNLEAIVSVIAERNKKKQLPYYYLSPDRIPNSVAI
Briefly: Cell-free 5-LOX activity assay. Further details: made in house; host or cells: Escherichia coli Bl21 (DE3). Type of test: biochemical. Particulars: for IC50: human isolated 5-LOX; for inhibition of 5-LOX activity, times lower than 6: isolated 5-LOX, relative to compound 6. The protocol: Human recombinant 5-LOX was expressed in Escherichia coli Bl21 (DE3) cells that were transformed with the plasmid pT3-5LO (wt 5-LOX) and purified on an adenosine triphosphate (ATP)-agarose column by affinity chromatography.[40],[41] In a first step, E. coli was lysed in 50 mM triethanolamine/HCl pH 8.0 with ethylenediamine tetraacetic acid (EDTA) (5 mM), soybean trypsin inhibitor (60 μg/mL), phenylmethanesulfonyl fluoride (1 mM), dithiothreitol (1 mM), and lysozyme (1 mg/mL) and sonicated 3 times for 15 s. The homogenate was centrifuged at 40,000g for 20 min at 4 °C. The supernatant was transferred to an ATP-agarose column (Sigma-Aldrich, Deisenhofen, Germany), which was sequentially washed with phosphate-buffered saline (PBS) pH 7.4, 1 mM EDTA, 50 mM phosphate buffer pH 7.4, 0.5 M NaCl, 1 mM EDTA, and finally 50 mM phosphate buffer pH 7.4 plus 1 mM EDTA. The enzyme was eluted with 50 mM phosphate buffer pH 7.4, 1 mM EDTA, and 20 mM ATP.
5-LOX product formation was started by the addition of 20 μM arachidonic acid (Sigma-Aldrich) and CaCl2 (2 mM) and stopped by the addition of an equal volume of ice-cold methanol containing PGB1 (200 ng) as internal standard after 10 min at 37 °C.

The target in test [3] is T2, 5-LOX. Briefly: 5-LOX product formation in human activated PMNL (A23187). Details: Freshly isolated PMNL (5 × 10^6) suspended in PBS pH 7.4 with 1 mg/mL glucose were preincubated with the test compounds; endogenous in cells; host or cells: human PMNL from donor blood; remaining activity: dose or concentration left out as unconfirmed. Particulars: for remaining activity at 10 µM / IC50: human activated PMNL; for remaining activity at 10 µM: read-out: 5-LOX residual activity in PMNL (%) at 10 μM; for remaining activity: PMNL, read-out: 5-LO residual activity in PMNL (%). It counts as cell-based. The protocol:
Human PMNL were freshly isolated from leukocyte concentrates that were obtained from the Institute for Transfusion Medicine of the University Hospital Jena (Germany). […] These volunteers regularly donated blood (every 8–12 weeks) and were physically inspected by a clinician. […] Leukocytes were concentrated by centrifugation (4000g/20 min/20 °C) of freshly withdrawn blood. […] PMNL were obtained from the cell pellet. […] The reaction was stopped with an equal volume of methanol containing PGB1 (200 ng) as internal standard. Major 5-LOX products (all-trans isomers of LTB and 5-HETE, and additionally LTB4) were extracted and analyzed by RP-HPLC as described for the determination of cell-free 5-LOX activity.

Turning to `O=C(Nc1ccc2c(c1)CCN2Cc1ccc(F)cc1)C12C[C@H]3C[C@@H](C1)C[C@@H](C2)C3` [Compound 3, (3R,5R,7R)-N-(1-(4-Fluorobenzyl)indolin-5-yl)adamantane-1-carboxamide], the IC50 in test [1] came out at 0.285 ± 0.0312 µM. The compound also showed an IC50 in test [2] of 0.074 ± 0.018 µM. Besides, in test [3], the remaining activity at 10 µM worked out at 53.2 ± 9.9% and the remaining activity was 53.2 ± 9.9%.

For `CC1(C)C2CC[C@@]1(CS(=O)(=O)Nc1ccc3c(c1)CCN3Cc1ccc(F)cc1)C(=O)C2` [Compound 4, 1-((1S)-7,7-Dimethyl-2-oxobicyclo[2.2.1]heptan-1-yl)-N-(1-(4-fluorobenzyl)indolin-5-yl)methanesulfonamide], the IC50 in test [1] was found to be 1.8 ± 0.46 µM. Also, in test [2], the IC50 was 0.171 ± 0.066 µM and the “inhibition of 5-LOX activity, times lower than 6” value is reported as “around 2.5 times”. In test [3], the remaining activity at 10 µM amounted to 2.5 ± 2.5%, the remaining activity amounted to 2.5 ± 2.5% and 2.56 µM corresponded to half-maximal inhibition (IC50).

In the case of `O=C(NCC12C[C@H]3C[C@@H](C1)C[C@@H](C2)C3)Nc1ccc2c(c1)CCN2Cc1ccc(F)cc1` [Compound 5, 1-(((3R,5R,7R)-Adamantan-1-yl)methyl)-3-(1-(4-fluorobenzyl)indolin-5-yl)urea], the results for the IC50 in test [1] and in test [2] were 0.0111 ± 0.006 µM and 0.078 ± 0.053 µM, respectively. The remaining activity at 10 µM in test [3] was found to be 79.7 ± 2.8%. Further, the remaining activity in test [3] was 73.7 ± 2.8%.

Turning to `O=C(NCc1cccc2ccccc12)Nc1ccc2c(c1)CCN2Cc1ccc(F)cc1` [Compound 7, 1-(1-(4-Fluorobenzyl)indolin-5-yl)-3-(naphthalen-1-ylmethyl)urea], in test [1], the IC50 is 0.0361 ± 0.0075 µM. Besides, in test [2], half-maximal inhibition (IC50) was put at 0.148 ± 0.028 µM and the “inhibition of 5-LOX activity, times lower than 6” value is roughly 2 times. Besides, in test [3], the remaining activity at 10 µM was 56.3 ± 5.1% and the remaining activity was 56.3 ± 5.1%.

As to `CN1CCCN(CCNC(=O)Nc2ccc3c(c2)CCN3Cc2ccc(F)cc2)CC1` [Compound 8, 1-(1-(4-Fluorobenzyl)indolin-5-yl)-3-(2-(4-methyl-1,4-diazepan-1-yl)ethyl)urea], the IC50 in test [1] is greater than 10 µM. In addition, the half-maximal inhibitory concentration (IC50) in test [2] is greater than 1 µM. Besides, in test [3], the remaining activity at 10 µM was found to be 71.1 ± 6.6% and the remaining activity came to 71.1 ± 6.6%.

Turning to `Fc1ccc(CN2CCc3cc(NC(=S)NCC45C[C@H]6C[C@@H](C4)C[C@@H](C5)C6)ccc32)cc1` [Compound 10, 1-(((3R,5R,7R)-Adamantan-1-yl)methyl)-3-(1-(4-fluorobenzyl)indolin-5-yl)thiourea], the values for the IC50 in test [1] and in test [2] were 0.288 ± 0.22 µM and greater than 1 µM, respectively.

Turning to `O=C(NCC12C[C@H]3C[C@@H](C1)C[C@@H](C2)C3)Nc1ccc2c(c1)CCN2Cc1ccc(C(=O)O)cc1` [Compound 14, 4-((5-(3-(((3R,5R,7R)-Adamantan-1-yl)methyl)ureido)indolin-1-yl)methyl)benzoic Acid], the IC50 was 0.0241 ± 0.0041 µM in test [1] and greater than 1 µM in test [2]. The remaining activity at 10 µM in test [3] is 57.7 ± 9.6%. In addition, in test [3], the remaining activity was determined as 57.7 ± 9.6%.

Regarding `COC(=O)c1ccc(Cn2ccc3cc(NC(=O)NCC45C[C@H]6C[C@@H](C4)C[C@@H](C5)C6)ccc32)cc1` [Compound 29, Methyl 4-((5-(3-(((3R,5R,7R)-Adamantan-1-yl)methyl)ureido)-1H-indol-1-yl)methyl)benzoate], the IC50 in test [1] was 0.0114 ± 0.0036 µM. The same compound displayed an IC50 in test [2] greater than 1 µM. Moreover, in test [3], the remaining activity at 10 µM was 65.1 ± 9.4% and the remaining activity turned out to be 65.1 ± 9.4%.

Regarding `COC(=O)CCCn1ccc2cc(NC(=O)NCC34C[C@H]5C[C@@H](C3)C[C@@H](C4)C5)ccc21` [Compound 32, Methyl 4-(5-(3-(((3R,5R,7R)-Adamantan-1-yl)methyl)ureido)-1H-indol-1-yl)butanoate], in test [1], the IC50 was determined as 0.0213 ± 0.0119 µM. In test [2], this compound gave a 50% inhibitory concentration (IC50) greater than 1 µM. In test [3], the remaining activity at 10 µM is 30.1 ± 4.8%, the remaining activity was found to be 30.1 ± 4.8% and the IC50 is 6.83 ± 0.84 µM.

Consider `O=C(Nc1ccc2c(ccn2Cc2ccc(F)cc2)c1)NC12C[C@H]3C[C@@H](C1)C[C@@H](C2)C3` [Compound 33, 1-((3S,5S,7S)-Adamantan-1-yl)-3-(1-(4-fluorobenzyl)-1H-indol-5-yl)urea], for which the IC50 is 0.0134 ± 0.0031 µM in test [1] and greater than 1 µM in test [2]. In addition, in test [3], the remaining activity worked out at 97.8 ± 0.3%.

For the compound `O=C(NCC12C[C@H]3C[C@@H](C1)C[C@@H](C2)C3)Nc1ccc2c(ccn2Cc2ccc(C(=O)O)cc2)c1` [Compound 37, 4-((5-(3-(((3R,5R,7R)-Adamantan-1-yl)methyl)ureido)-1H-indol-1-yl)methyl)benzoic Acid], the IC50 in test [1] came out at 0.0151 ± 0.0077 µM. In addition, the IC50 in test [2] was greater than 1 µM. In test [3], the remaining activity at 10 µM worked out at 2.1 ± 1.1%, the remaining activity was 2.1 ± 1.1% and inhibition was half-maximal at 4.4 ± 0.42 µM (IC50).

On to `O=C(O)CCCn1ccc2cc(NC(=O)NCC34C[C@H]5C[C@@H](C3)C[C@@H](C4)C5)ccc21` [Compound 38, 4-(5-(3-(((3R,5R,7R)-Adamantan-1-yl)methyl)ureido)-1H-indol-1-yl)butanoic Acid], for which the IC50 in test [1] came to 0.0533 ± 0.0159 µM. Also, the IC50 in test [2] is greater than 1 µM. Moreover, in test [3], the remaining activity at 10 µM amounted to 41.2 ± 7.8%, the remaining activity was determined as 41.2 ± 7.8% and the IC50 was found to be 8.15 ± 1.86 µM.

Take `NCCCn1ccc2cc(NC(=O)NCC34CC5CC(CC(C5)C3)C4)ccc21` [Compound 39, 1-(((3R,5R,7R)-Adamantan-1-yl)methyl)-3-(1-(3-aminopropyl)-1H-indol-5-yl)urea]: the IC50 in test [1] was 0.0272 ± 0.0118 µM. The IC50 in test [2] was greater than 1 µM. Moreover, in test [3], the remaining activity at 10 µM was found to be 51.8 ± 13% and the remaining activity stood at 51.8 ± 13%.

As for `NCc1ccc(Cn2ccc3cc(NC(=O)NCC45C[C@H]6C[C@@H](C4)C[C@@H](C5)C6)ccc32)cc1` [Compound 42, 1-(((3R,5R,7R)-Adamantan-1-yl)methyl)-3-(1-(4-(aminomethyl)benzyl)-1H-indol-5-yl)urea], the IC50 in test [1] was 0.0149 ± 0.0046 µM; in test [2], greater than 1 µM; in test [3] it was 6.19 ± 2.41 µM. For the same compound, the remaining activity at 10 µM in test [3] was determined as 6.6 ± 4%. Further, the remaining activity in test [3] was determined as 6.6 ± 4%.

Usually IC50 stands for the concentration that gives 50% inhibition.
